Reference: paper PMC317294 (BMC Pharmacology, 2003)

What was measured:
Ala^348,353 hMOR [1] = target: T1, Ala^348,353 hMOR (Homo sapiens, UniProt P35372, C348A/C353A); type: cell-based
[2] = target: T2, human mu opioid receptor (hMOR) (Homo sapiens, UniProt P35372); type: cell-based
Ala^348,353 hMOR [3] = target: T1, Ala^348,353 hMOR; test: biochemical; details: read-out: maximal efficacy as percentage of stimulation above basal levels
[4] = target: T2, human mu opioid receptor (hMOR); test: biochemical; details: read-out: maximal efficacy as percentage of stimulation above basal levels
Ala^348,353 hMOR [5] = target: T1, Ala^348,353 hMOR; type: binding

T1 sequence (P35372 whole entry C348A/C353A): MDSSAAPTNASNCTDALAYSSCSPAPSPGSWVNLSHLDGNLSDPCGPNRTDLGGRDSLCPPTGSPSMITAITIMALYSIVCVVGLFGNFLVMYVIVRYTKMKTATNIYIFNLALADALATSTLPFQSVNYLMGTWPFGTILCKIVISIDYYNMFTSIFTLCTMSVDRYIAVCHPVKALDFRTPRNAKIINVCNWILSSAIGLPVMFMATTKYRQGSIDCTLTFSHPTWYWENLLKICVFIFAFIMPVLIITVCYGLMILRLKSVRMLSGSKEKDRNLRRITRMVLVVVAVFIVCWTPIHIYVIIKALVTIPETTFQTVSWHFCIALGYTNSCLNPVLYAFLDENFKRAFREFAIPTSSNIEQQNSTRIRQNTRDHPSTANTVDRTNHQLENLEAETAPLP
T2 sequence (P35372 whole entry): as the sequence (P35372 whole entry C348A/C353A) above, with A348C, A353C counted along it

## COc1cccc2c1[C@]13CCN(CC4CC4)[C@H](C2)[C@]1(OC)CCC(=O)C3 [Cyprodime]
Ala^348,353 hMOR [1]
  Ala^348,353 hMOR expression level after ligand treatment: 245 ± 20%
[2]
  hMOR expression level after ligand treatment: 103 ± 9%

## C[C@@H](NC(=O)[C@@H](N)Cc1ccc(O)cc1)C(=O)NCC(=O)N(C)[C@@H](Cc1ccccc1)C(=O)NCCO [DAMGO, [D-Ala^2, N-Me-Phe^4, Gly^5-ol]-enkephalin]
Ala^348,353 hMOR [3]
  Emax: 164 ± 6%
[4]
  Emax: 366 ± 23%

## C[C@@H](NC(=O)[C@@H](N)Cc1ccc(O)cc1)C(=O)N[C@@H](Cc1ccccc1)C(=O)NCC(=O)N[C@@H](Cc1ccc(O)cc1)C(=O)N1CCC[C@H]1C(=O)N[C@@H](CO)C(N)=O [Dermorphin]
Ala^348,353 hMOR [5]
  increase in binding affinity for Ala^348,353 hMOR compared to hMOR: approximately 20 fold
